Here are results for 1 substance from US9115065B2 (priority 2004, dated 2015).

As usually defined, the EC50 is the concentration that produces a half-maximal response. One may read the CC50 as the concentration that lowers cell viability or growth by half.

Entries after “also recorded” stand apart in the source; their conditions may differ. Read-outs that look alike come from different tables or passages of the source.

For data set [1], the system named is Tacaribe virus. Format: cell-based. The settings on record: read-out: Tacaribe (Plaque reduction) EC50.
The next data set deals with Machupo. It counts as cell-based, Machupo virus. The settings on record: read-out: Machupo (Plaque reduction) EC50.
Data set [2] deals with drug resistant Tacaribe mutants. It counts as cell-based, Tacaribe virus.
For data set [3], the system named is Tacaribe virus. On the set-up: species or system BALB/c mice. The conditions noted are these: mouse, in vivo.
The conditions of data set [4]: in vivo.
The next data set relates to Junín. It counts as cell-based, Junin virus. The settings on record: read-out: Junin (Plaque reduction) EC50.
The subject of the next data set is Guanarito. Format: cell-based, Guanarito virus. The conditions noted are these: read-out: Guanarito (Plaque reduction) EC50.
The test system of data set [5] is Tacaribe virus. Nature of the data set: microbe, parasite or virus in culture. It counts as cell-based.
For data set [6] the following is noted: in vivo. This is another data set of the same source.
Data set [7] deals with S. typhimurium tester strains TA7007 and TA7006 and TA98.
The conditions of data set [8]: mouse, in vivo, ip, 100 mg/kg/day.
The subject of the next data set is icd-GPC. It counts as binding, Junin virus.

With “N-2-(1,1,1,3,3,3-hexafluoro-1-methylpropyl)-2-[(4-difluoromethoxyphenyl)sulfonyl]hydrazine-1-carboxamide [ST-294]”, the EC50 stood at 100 nM in the data set on Tacaribe virus [1]; 300 nM in the data set on Machupo; 300 nM in the data set on Junín; 1000 nM in the data set on Guanarito; 120 nM in the data set with Tacaribe virus [5] (read-out: Tacaribe (CPE) EC50). In addition, the “susceptibility of ST-336 drug resistant Tacaribe variants” value in [2] is “all of the mutants elicited cross-resistance”. Further, the “efficacy (survival) in Tacaribe infected newborn mice” value in the data set on Tacaribe virus [3] was “both survival and a delay in death similar to the drug control; also recorded: significant protection against Tacaribe virus induced disease”. For the same substance, the “PK (newborn mouse/IP) Cmax” value in [4] was 2910 ng/mL. In data set [4], the “PK (newborn mouse/IP) ½ life” value was determined as 3 h. Besides, the “Tacaribe virus CPE EC50” value with Tacaribe virus [5] worked out at 0.066 µg/mL. Besides, the “PK (rat/oral) ½ life” value in [6] came to 2 h. In addition, in data set [6] (rat, po), the “Cmax (serum levels)” value was 6670 ng/mL. Further, the CC50 in the data set on Vero cells was greater than 50000 nM. In addition, in data set [7], the “Genotoxicity (Ames test)” value is recorded as “negative”. For the same substance, the tolerability entry in [8] is listed as “well tolerated”. Moreover, the “displacement of bound ST-375 from icd-GPC” value in the data set on icd-GPC was “displaced from icd-GPC in a time- and concentration-dependent manner”.
